Laboratory results: US11530223B2, “Spiro-lactam NMDA receptor modulators and uses thereof” (Aptinyx Inc., priority 2016, dated 2022)
Where two headings read alike, the source gives them in different places.

Tests used:
rats = test: positive emotional learning (PEL) test, 50-kHz ultrasonic vocalizations; type: in vivo; settings: rat, PO, one hour after administration
Experimental: Experiments were conducted as described in Burgdorf et al., “The effect of selective breeding for differential rates of 50-kHz ultrasonic vocalizations on emotional behavior in rats,” Devel. Psychobiol., 51:34-46 (2009). Rat 50-kHz ultrasonic vocalization (hedonic USVs) is a validated model for the study of positive affective state and is best elicited by rough-and-tumble play.
The PEL assay measures the acquisition of positive (hedonic) 50-kHz ultrasonic vocalizations (USVs) to a social stimulus, heterospecific rough and tumble play stimulation. Heterospecific rough-and-tumble play stimulation was administered by the experimenter's right hand. One hour after administration of test compound or vehicle negative control (0.5% sodium carboxymethyl cellulose in 0.9% sterile saline vehicle), animals received 3 min of heterospecific rough-and-tumble play that consisted of alternating 15 sec blocks of heterospecific play and 15 sec of no-stimulation. High frequency ultrasonic vocalizations (USVs) were recorded and analyzed by sonogram with Avasoft SASlab Pro (Germany) as previously described by Burgdorf et al., “Positive emotional learning is regulated in the medial prefrontal cortex by GluN2B-containing NMDA receptors,” Neuroscience, 192:515-523 (2011). Frequency modulated 50-kHz USVs that occurred during each of the no-stimulation periods were quantified to measure PEL. Animals were not habituated to play stimulation before testing. Positive emotional learning was measured during the conditioned stimulus (CS) trials preceding the tickle unconditioned stimulus (UCS) trials. Animals received 15 second trials consisting of 6 CS and 6 UCS trials each (3 min total).
The table below summarizes the findings. As each experiment includes its own vehicle group, an example (typical) vehicle score is shown. Max effect (mean number of 50 kHz USVs per 15 seconds) is reported as ^: <6.0; *: 6.0-7.6; **: 7.7-10; ***:10.1-20

NMDAR2A = target: T1, NMDAR2A (Homo sapiens, UniProt Q12879); test: [3H]MK-801 binding in NMDAR2A expressing HEK cell membranes; type: biochemical; settings: 50 μM glutamate; for Emax: read-out: A: % maximal [3H]MK-801 binding relative to 1 mM glycine; for EC50: read-out: B: log EC50 (converted)
T1 construct: expressed in transfected cells; host or cells: HEK cells (membrane extract)
T1 sequence (Q12879 23-1464, species assumed, other chains not shown): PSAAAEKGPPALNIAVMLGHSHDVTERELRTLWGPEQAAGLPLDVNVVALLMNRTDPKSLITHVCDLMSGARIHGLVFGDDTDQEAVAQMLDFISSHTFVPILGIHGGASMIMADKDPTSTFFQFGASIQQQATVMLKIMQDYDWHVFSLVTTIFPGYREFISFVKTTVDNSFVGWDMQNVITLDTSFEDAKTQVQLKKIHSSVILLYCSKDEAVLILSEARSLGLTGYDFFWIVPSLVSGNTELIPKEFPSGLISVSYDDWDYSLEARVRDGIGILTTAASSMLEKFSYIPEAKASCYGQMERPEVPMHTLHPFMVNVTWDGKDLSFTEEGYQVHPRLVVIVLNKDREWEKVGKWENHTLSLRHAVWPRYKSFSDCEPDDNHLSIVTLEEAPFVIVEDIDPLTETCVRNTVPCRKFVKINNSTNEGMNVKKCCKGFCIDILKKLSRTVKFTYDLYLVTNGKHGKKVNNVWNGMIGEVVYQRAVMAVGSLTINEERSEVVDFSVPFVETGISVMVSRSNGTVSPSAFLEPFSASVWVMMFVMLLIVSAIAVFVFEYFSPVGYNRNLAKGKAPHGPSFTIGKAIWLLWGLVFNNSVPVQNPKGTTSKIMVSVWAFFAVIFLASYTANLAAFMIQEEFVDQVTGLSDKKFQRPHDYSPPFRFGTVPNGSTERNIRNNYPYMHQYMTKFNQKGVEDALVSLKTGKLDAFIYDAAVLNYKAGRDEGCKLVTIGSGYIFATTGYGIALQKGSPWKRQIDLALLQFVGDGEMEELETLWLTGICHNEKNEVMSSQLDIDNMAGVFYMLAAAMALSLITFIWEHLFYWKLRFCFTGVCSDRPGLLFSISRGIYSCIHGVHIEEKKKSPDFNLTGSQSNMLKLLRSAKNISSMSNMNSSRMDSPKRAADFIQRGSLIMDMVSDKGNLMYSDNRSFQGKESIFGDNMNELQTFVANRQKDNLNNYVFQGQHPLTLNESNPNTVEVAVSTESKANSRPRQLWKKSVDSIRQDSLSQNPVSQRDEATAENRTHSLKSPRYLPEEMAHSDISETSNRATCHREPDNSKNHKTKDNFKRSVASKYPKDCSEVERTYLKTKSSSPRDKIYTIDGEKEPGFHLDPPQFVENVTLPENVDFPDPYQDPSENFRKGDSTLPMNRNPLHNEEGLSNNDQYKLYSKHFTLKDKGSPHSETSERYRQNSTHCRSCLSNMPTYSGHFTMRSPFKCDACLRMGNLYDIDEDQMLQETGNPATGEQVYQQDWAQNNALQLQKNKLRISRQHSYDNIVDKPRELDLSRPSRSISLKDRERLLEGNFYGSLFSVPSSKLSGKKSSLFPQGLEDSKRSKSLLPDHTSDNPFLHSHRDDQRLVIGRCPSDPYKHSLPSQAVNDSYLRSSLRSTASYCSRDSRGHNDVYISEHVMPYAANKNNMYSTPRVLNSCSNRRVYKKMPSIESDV
Experimental: (§1) Assays were conducted as described by Moskal et al., “GLYX-13: a monoclonal antibody-derived peptide that acts as an N-methyl-D-aspartate receptor modulator,” Neuropharmacology, 49, 1077-87, 2005. These studies were designed to determine if the test compounds act to facilitate NMDAR activation in NMDAR2A, NMDAR2B, NMDAR2C or NMDAR2D expressing HEK cell membranes as measured by increases in [^3H]MK-801 binding.
(§2) In the assay, 300 μg of NMDAR expressing HEK cell membrane extract protein was preincubated for 15 minutes at 25° C. in the presence of saturating concentrations of glutamate (50 μM) and varying concentrations of test compound (1×10^−15M−1×10^−7M), or 1 mM glycine. Following the addition of 0.3 μCi of [^3H]MK-801 (22.5 Ci/mmol), reactions were again incubated for 15 minutes at 25° C. (nonequilibrium conditions). Bound and free [^3H]MK-801 were separated via rapid filtration using a Brandel apparatus.
(§3) In analyzing the data, the DPM (disintegrations per minute) of [^3H]MK-801 remaining on the filter were measured for each concentration of test compound or for 1 mM glycine. The DPM values for each concentration of a ligand (N=2) were averaged. The baseline value was determined from the best fit curve of the DPM values modeled using the GraphPad program and the log(agonist) vs. response (three parameters) algorithm was then subtracted from all points in the dataset. The % maximal [^3H]MK-801 binding was then calculated relative to that of 1 mM glycine: all baseline subtracted DPM values were divided by the average value for 1 mM glycine. The EC50 and % maximal activity were then obtained from the best fit curve of the % maximal [^3H]MK-801 binding data modelled using the GraphPad program and the log(agonist) vs. response (three parameters) algorithm.
(§4) The tables below summarize the results for the wild type […] NMDAR2A, NMDAR2B, NMDAR2C, and NMDAR2D, and whether the compound is not an agonist (−), is an agonist (+), or is a strong agonist (++), where column A is based on the % maximal [^3H]MK-801 binding relative to 1 mM glycine (−=0; <100%=+; and >100%=++); and column B is based on log EC50 values (0=−; ≥1×10^−9 M (e.g., −8)=+; and <1×10^−9 M (e.g., −10)=++).

NMDAR2B = target: T2, NMDAR2B (Homo sapiens, UniProt Q13224); test: [3H]MK-801 binding in NMDAR2B expressing HEK cell membranes; type: biochemical; design: key to B: log EC50: 0=−; ≥1×10^−9 M (e.g., −8)=+; <1×10^−9 M (e.g., −10)=++; settings: 50 μM glutamate; for Emax: read-out: A: % maximal [3H]MK-801 binding relative to 1 mM glycine; for EC50: read-out: B: log EC50 (converted)
T2 construct: expressed in transfected cells; host or cells: HEK cells (membrane extract)
T2 sequence (Q13224 27-1484, species assumed, other chains not shown): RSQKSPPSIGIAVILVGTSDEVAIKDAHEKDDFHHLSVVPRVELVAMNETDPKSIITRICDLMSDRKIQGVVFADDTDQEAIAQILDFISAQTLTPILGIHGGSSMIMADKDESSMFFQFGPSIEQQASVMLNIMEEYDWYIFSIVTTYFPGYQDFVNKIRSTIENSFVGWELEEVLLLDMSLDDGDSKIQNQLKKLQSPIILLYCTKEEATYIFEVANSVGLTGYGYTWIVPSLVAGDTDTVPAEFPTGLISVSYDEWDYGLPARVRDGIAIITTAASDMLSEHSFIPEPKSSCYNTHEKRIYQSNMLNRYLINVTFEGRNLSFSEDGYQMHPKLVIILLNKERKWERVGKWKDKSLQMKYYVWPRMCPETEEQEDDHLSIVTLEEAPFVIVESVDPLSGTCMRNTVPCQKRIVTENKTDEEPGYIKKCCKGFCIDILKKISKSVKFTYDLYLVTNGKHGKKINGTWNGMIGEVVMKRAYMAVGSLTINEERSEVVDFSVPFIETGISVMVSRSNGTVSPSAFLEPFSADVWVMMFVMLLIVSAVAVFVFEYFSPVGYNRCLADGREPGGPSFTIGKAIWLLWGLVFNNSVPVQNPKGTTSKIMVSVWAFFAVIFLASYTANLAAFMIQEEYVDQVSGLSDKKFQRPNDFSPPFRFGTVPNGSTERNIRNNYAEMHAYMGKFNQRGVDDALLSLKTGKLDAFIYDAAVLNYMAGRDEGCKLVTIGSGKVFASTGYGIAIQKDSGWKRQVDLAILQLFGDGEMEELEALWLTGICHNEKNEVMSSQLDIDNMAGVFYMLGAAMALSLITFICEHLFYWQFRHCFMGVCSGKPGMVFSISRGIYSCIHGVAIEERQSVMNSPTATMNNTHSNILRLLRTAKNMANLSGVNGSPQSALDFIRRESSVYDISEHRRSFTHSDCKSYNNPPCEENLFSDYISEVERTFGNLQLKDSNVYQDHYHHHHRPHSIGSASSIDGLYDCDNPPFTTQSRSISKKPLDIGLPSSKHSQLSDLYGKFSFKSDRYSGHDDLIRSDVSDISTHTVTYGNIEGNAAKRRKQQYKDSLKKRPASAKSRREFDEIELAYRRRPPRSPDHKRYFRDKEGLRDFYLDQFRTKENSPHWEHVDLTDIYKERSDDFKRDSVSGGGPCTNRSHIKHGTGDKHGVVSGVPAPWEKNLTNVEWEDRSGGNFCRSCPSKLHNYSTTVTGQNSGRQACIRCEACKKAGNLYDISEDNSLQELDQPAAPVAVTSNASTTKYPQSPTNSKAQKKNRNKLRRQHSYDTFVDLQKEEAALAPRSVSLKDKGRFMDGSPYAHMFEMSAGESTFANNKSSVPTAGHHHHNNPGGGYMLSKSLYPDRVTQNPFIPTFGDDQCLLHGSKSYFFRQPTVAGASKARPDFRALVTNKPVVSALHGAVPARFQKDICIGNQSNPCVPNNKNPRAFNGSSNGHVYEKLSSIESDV
Experimental: as §1, §2, §3, §4

[1] = oral pharmacokinetics (plasma, brain, CSF); type: in vivo; settings: Sprague Dawley rats, per os 10 mg/kg; for Tmax: normal saline (first four compounds: 5% NMP, 5% Solutol HS, 90% normal saline)
Experimental: Plasma, brain, and CSF samples were analyzed at various time points over a 24 hour period.

IV pharmacokinetics = type: in vivo; settings: Sprague Dawley rats; for C0: normal saline (first four compounds: 5% NMP, 5% Solutol HS, 90% normal saline); for Vd: read-out: Vss
Experimental: Sprague Dawley rats were dosed intravenously using a normal saline formulation containing 2 mg/kg of the compounds identified in the below table (except for the first four compounds that were delivered in 5% NMP, 5% Solutol® HS and 90% normal saline formulation). The table below summarizes the results of the IV pharmacokinetics.

NMDAR2D [2] = target: T3, NMDAR2D (Homo sapiens, UniProt O15399); test: [3H]MK-801 binding in NMDAR2D expressing HEK cell membranes; type: biochemical; design: key to B: log EC50: 0=−; ≥1×10^−9 M (e.g., −8)=+; <1×10^−9 M (e.g., −10)=++; settings: for B: log EC50: second part of table, c4, taken as NMDAR2D
T3 construct: expressed in transfected cells; host or cells: HEK cells (membrane extract)
T3 sequence (O15399 28-1336, species assumed, other chains not shown): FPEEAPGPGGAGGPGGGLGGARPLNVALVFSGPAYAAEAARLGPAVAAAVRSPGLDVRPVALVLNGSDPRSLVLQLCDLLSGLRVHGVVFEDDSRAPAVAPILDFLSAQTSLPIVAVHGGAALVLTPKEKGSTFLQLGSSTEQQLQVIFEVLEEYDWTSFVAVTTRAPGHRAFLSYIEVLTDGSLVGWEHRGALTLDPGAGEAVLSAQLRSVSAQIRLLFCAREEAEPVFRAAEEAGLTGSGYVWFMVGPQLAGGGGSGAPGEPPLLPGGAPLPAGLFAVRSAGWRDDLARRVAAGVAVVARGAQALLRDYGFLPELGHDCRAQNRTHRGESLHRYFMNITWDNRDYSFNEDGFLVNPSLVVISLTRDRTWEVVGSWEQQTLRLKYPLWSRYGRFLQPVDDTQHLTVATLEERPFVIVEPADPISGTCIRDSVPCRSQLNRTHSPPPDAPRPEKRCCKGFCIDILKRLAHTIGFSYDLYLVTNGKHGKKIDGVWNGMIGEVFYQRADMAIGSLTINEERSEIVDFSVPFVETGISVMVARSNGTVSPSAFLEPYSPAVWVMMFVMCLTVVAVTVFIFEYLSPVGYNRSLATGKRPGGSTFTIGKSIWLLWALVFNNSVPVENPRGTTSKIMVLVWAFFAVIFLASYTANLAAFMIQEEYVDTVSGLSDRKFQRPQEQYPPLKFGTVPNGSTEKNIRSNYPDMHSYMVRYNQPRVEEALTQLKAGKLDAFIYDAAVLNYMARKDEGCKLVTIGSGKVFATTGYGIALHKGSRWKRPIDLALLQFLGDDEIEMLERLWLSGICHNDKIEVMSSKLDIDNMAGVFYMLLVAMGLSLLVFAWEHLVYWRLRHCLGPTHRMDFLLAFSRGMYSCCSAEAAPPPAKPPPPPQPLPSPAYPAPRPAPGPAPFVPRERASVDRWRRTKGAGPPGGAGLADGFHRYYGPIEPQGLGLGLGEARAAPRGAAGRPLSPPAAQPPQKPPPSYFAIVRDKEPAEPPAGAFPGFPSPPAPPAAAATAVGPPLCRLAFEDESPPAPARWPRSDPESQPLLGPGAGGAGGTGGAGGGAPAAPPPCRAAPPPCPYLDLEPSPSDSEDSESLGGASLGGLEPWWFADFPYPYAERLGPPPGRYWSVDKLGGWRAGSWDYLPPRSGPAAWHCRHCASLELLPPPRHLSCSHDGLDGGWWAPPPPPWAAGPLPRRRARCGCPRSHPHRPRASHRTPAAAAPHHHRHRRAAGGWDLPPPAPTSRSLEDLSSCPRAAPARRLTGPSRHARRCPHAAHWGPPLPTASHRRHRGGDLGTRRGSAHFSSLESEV
Experimental: as §1, §2, §3, §4

NMDAR2D [3] = target: T4, NMDAR2D (Homo sapiens, UniProt O15399+Q05586); test: as above; type: biochemical; design: key to B: log EC50: 0=−; ≥1×10^−9 M (e.g., −8)=+; <1×10^−9 M (e.g., −10)=++; settings: second part of table; c3, taken as NMDAR2D; read-out: A: % maximal [3H]MK-801 binding relative to 1 mM glycine
T4 construct: expressed in transfected cells; host or cells: HEK cells (membrane extract)
T4 sequence (O15399 28-1336, species assumed, other chains not shown): as above
Experimental: as §1, §2, §3, §4

Sprague Dawley rats = test: Porsolt forced swim test; type: in vivo; settings: 0.1 mg/kg; for % reduction in float time: relative to vehicle group
Experimental: A non-clinical in vivo pharmacology study (Porsolt assay) was performed to measure antidepressant-like effects. A negative control (0.5% sodium carboxymethyl cellulose in 0.9% sterile saline vehicle) and a positive control (fluoxetine) are shown for comparison against test compound. The study allowed for the evaluation of the effects of each compound on the Porsolt forced swim test as assessed by the rats' response (reduced floating time) during a 5-minute swimming test.
Male 2-3 month old Sprague Dawley rats were used (Harlan, Indianapolis, Ind.). Rats were housed in Lucite cages with aspen wood chip bedding, maintained on a 12:12 light:dark cycle (lights on at 5 AM), and given ad libitum access to Purina lab chow (USA) and tap water throughout the study.
The Porsolt forced swim test adapted for use in rats was performed as described by Burgdorf et al., (The long-lasting antidepressant effects of rapastinel (GLYX-13) are associated with a metaplasticity process in the medial prefrontal cortex and hippocampus. Neuroscience 308:202-211, 2015). Animals were placed in a 46 cm tall×20 cm in diameter clear glass tube filled to 30 cm with tap water (23±1° C.) for 15 min on the first day (habituation) and 5 min on the subsequent test day. Positive control fluoxetine was dosed 3 times (24 h, 5 h and 1 h) prior to testing. Animals were tested 1 h or 24 h post-dosing with the test compounds or vehicle. Animals received a 15 min habituation session 1 day before the 5 min test. A subset of compounds tested at 1 h post-dosing were retested at 1 wk post-dosing in the same sets of animals. Water was changed after every other animal. Animals were videotaped, and floating time as defined as the minimal amount of effort required to keep the animals head above water was scored offline by a blinded experimenter with high inter-rater reliability (Pearson's r>0.9).
Each compound tested at dose level shown. Significance vs. vehicle group for each experiment is marked. […] A compound marked “No” was not statistically significant from vehicle. Data was averaged for test compound and vehicle groups (N approximately 8 per group) and the percent reduction in floating for group treated with test compound relative to group treated with vehicle is shown.

[4] = Sprague Dawley, rat, plasma, po, 10 mg/kg, read-out: Tmax
[5] = Sprague Dawley, rat, plasma, po, 10 mg/kg, plasma, read-out: Cmax
[6] = Sprague Dawley, rat, in vivo, iv, 2 mg/kg
[7] = Sprague Dawley, rat, in vivo, iv, 2 mg/kg, read-out: C0
[8] = Sprague Dawley, rat, plasma, po, 10 mg/kg

Structure (SMILES)	Max Effect (mean number of 50 kHz USVs per 15 seconds) (rats; dose 0.1 mg/kg)	Emax (NMDAR2A)	EC50 (NMDAR2A)	Emax (NMDAR2B)	EC50 (NMDAR2B)	CSF Cmax [1]	Tmax [1, 4]	Cmax [1, 5]	T1/2 (IV pharmacokinetics; intravenous 2 mg/kg)	AUC(0-t) (IV pharmacokinetics; [6])	clearance (IV pharmacokinetics; [6])	C0 (IV pharmacokinetics; [7])	Vd (IV pharmacokinetics; [6])	Max Effect (mean number of 50 kHz USVs per 15 seconds) (rats; dose .001-1 mg/kg)	B: log EC50 (NMDAR2B)	Brain Cmax [1]	AUC(0-t) [1, 8]	bioavailability [1, 8]	A: % maximal [3H]MK-801 binding relative to 1 mM glycine (NMDAR2A)	A: % maximal [3H]MK-801 binding relative to 1 mM glycine (NMDAR2B)	other results
CC(C)(C)OC(=O)N1CCCC12CCNC2=O (single isomer, unassigned) [RT-1, tert-butyl 6-oxo-1,7-diazaspiro[4.4]nonane-1-carboxylate]	** (**: 7.7-10)	< 100%	< 1 nM	< 100%	< 1 nM																
O=C1NCCC12CCCN2 (single isomer, unassigned) [RW-1, 1,7-diazaspiro[4.4]nonan-6-one]	** (**: 7.7-10)	< 100%	≥ 1 nM	< 100%	< 1 nM	853 ng/mL	1 h	4070 ng/mL													
O=C1NCCC12CCCNC2 (stereo not drawn) [RB-1, 2,7-diazaspiro[4.5]decan-1-one]		< 100%	< 1 nM	> 100%		27.4 ng/mL	1.17 h	825 ng/mL	3.35 h	1260 ng·h/mL	25.8 mL/min/kg	2070 ng/mL	2.79 L/kg	*** (***:10.1-20)	−	40.2 ng/mL	3290 ng·h/mL	52%			A: % maximal [3H]MK-801 binding relative to 1 mM glycine (NMDAR2D [2]; second part of table (r25-r35), c3, taken as NMDAR2D): + (<100%=+)
O=C1NCCC12CCCNC2 (stereo not drawn) [RC-1, 2,7-diazaspiro[4.5]decan-1-one]			< 1 nM		< 1 nM	20.8 ng/mL			1.36 h					*** (***:10.1-20)		27.6 ng/mL			+ (<100%=+)	++ (>100%=++)	AUClast (IV pharmacokinetics; intravenous 2 mg/kg): 1511.4 ng·h/mL; Cl (IV pharmacokinetics; intravenous 2 mg/kg): 21.81 mL/min/kg; Vss (IV pharmacokinetics; intravenous 2 mg/kg): 1.84 L/kg; C0 (IV pharmacokinetics; intravenous 2 mg/kg): 2013.4 ng/mL; B: log EC50 (NMDAR2D [2]): −; % F [1]: 49%; AUClast [1]: 3668.7 ng·h/mL; Tmax [1]: 1.67 h; Cmax ([1]; plasma): 990.2 ng/mL
O=C1NCCC12CCCCN2 (stereo not drawn) [RG-601]		< 100%	< 1 nM	< 100%	< 1 nM	1151 ng/mL	0.83 h	3990 ng/mL		2280 ng·h/mL	13.5 mL/min/kg	2850 ng/mL	1.14 L/kg			1447 ng/mL	9510 ng·h/mL	83%			half-life (IV pharmacokinetics; [6]): 1.16 h; Emax (NMDAR2D [3]): > 100%; Significance vs. vehicle (Sprague Dawley rats; 1 wk post-dose): Yes (statistically significant (p<=0.05) from vehicle at dose level shown); % reduction in float time (Sprague Dawley rats; 1 wk post-dose): 34.4%; Significance vs. vehicle (Sprague Dawley rats; 1 h post-dose, floating time in 5 min test): Yes (statistically significant (p<=0.05) from vehicle at dose level shown); % reduction in float time (Sprague Dawley rats; 1 h post-dose): 82.7%
CC(C)(C)OC(=O)N1CCCCC12CCNC2=O (stereo not drawn) [RG-605]			< 1 nM			1211 ng/mL				1580 ng·h/mL	21 mL/min/kg	3360 ng/mL	0.53 L/kg		−	733 ng/mL			+ (<100%=+)	− (−=0)	half-life (IV pharmacokinetics; [6]): 0.3 h; Emax (NMDAR2D [3]): 0%; B: log EC50 (NMDAR2D [2]): −; % F [1]: 81%; AUClast [1]: 6370 ng·h/mL; Cmax ([1]; plasma): 6478 ng/mL; Tmax ([1]; rat, plasma, po, read-out: Tmax): 0.25 h
